Assay results as given in PubChem BioAssay (NCI).
Values joined by “and” are separate entries in the source; they are usually repeats but may differ in a detail not shown here. Equal entries are not always repeated.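 Cultured in 96-well plates, cells were exposed to test compound for 48 hours across five concentrations. GI50 is the concentration that inhibits growth by half. At the TGI there is no net growth.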

Tests used:
Assay in all cases: inhibition of tumour cell growth, NCI panel, 48 h
[1] = test system: SK-MEL-28 melanoma
[2] = test system: M14 melanoma
[3] = test system: MALME-3M melanoma
[4] = test system: HCT-116 colon
[5] = test system: NCI-H460 lung
[6] = test system: DMS 114 small cell lung
[7] = test system: HOP-18 NSCLC
[8] = test system: SW-620 colon
[9] = test system: U251 CNS
[10] = test system: SNB-75 CNS
[11] = test system: HCT-15 colon
[12] = test system: OVCAR-4 ovarian
[13] = test system: ACHN renal
[14] = test system: HCC-2998 colon
[15] = test system: MOLT-4 leukemia
[16] = test system: DLD-1 colon
[17] = test system: KM20L2 colon
[18] = test system: HL-60(TB) leukemia
[19] = test system: KM12 colon
[20] = test system: SN12C renal
[21] = test system: A549 NSCLC
[22] = test system: SF-539 CNS
[23] = test system: HT29 colon
[24] = test system: CCRF-CEM leukemia
[25] = test system: LXFL 529 NSCLC
[26] = test system: RXF-631 renal
[27] = test system: SF-295 CNS
[28] = test system: SF-268 CNS
[29] = test system: HOP-62 NSCLC
[30] = test system: K-562 leukemia
[31] = test system: UACC-62 melanoma
[32] = test system: SNB-78 CNS
[33] = test system: 786-0 renal
[34] = test system: TK-10 renal
[35] = test system: SK-MEL-5 melanoma
[36] = test system: IGROV1 ovarian
[37] = test system: OVCAR-5 ovarian
[38] = test system: UO-31 renal
[39] = test system: SK-OV-3 ovarian
[40] = test system: UACC-257 melanoma
[41] = test system: OVCAR-3 ovarian
[42] = test system: OVCAR-8 ovarian
[43] = test system: M19-MEL melanoma
[44] = test system: RPMI-8226 leukemia
[45] = test system: SNB-19 CNS
[46] = test system: NCI-H226 lung
[47] = test system: A498 renal
[48] = test system: DMS 273 small cell lung
[49] = test system: COLO 205 colon
[50] = test system: EKVX NSCLC
[51] = test system: NCI-H23 lung
[52] = test system: HOP-92 NSCLC
[53] = test system: CAKI-1 renal
[54] = test system: RXF 393 renal
[55] = test system: DU-145 prostate
[56] = test system: MDA-MB-231 breast
[57] = test system: MCF7 breast
[58] = test system: NCI/ADR-RES ovarian
[59] = test system: PC-3 prostate
[60] = test system: HS 578T breast
[61] = test system: MDA-MB-435
[62] = test system: XF 498 CNS
[63] = test system: LOX IMVI melanoma
[64] = test system: SR leukemia
[65] = test system: T-47D breast
[66] = test system: NCI-H522 lung
[67] = test system: BT-549 breast
[68] = test system: MDA-N

Cc1cccc(Cl)c1NC(N)=S
TGI [1]: > 100 µM | TGI [2]: > 100 µM | TGI [3]: > 100 µM | TGI [4]: 35.9 µM | TGI [5]: > 100 µM | TGI [6]: 82 µM | TGI [7]: 98.6 µM | TGI [8]: 35.6 µM | TGI [9]: 49.7 µM | TGI [10]: > 100 µM | TGI [11]: 37.1 µM | TGI [12]: > 100 µM | TGI [13]: 82.5 µM | TGI [14]: > 100 µM | TGI [15]: > 100 µM | TGI [16]: > 100 µM | TGI [17]: > 100 µM | TGI [18]: > 100 µM | TGI [19]: > 100 µM | TGI [20]: > 100 µM | TGI [21]: > 100 µM | TGI [22]: > 100 µM | TGI [23]: > 100 µM | TGI [24]: > 100 µM | TGI [25]: > 100 µM | TGI [26]: > 100 µM | TGI [27]: > 100 µM | TGI [28]: > 100 µM | TGI [29]: > 100 µM | TGI [30]: > 100 µM | TGI [31]: > 100 µM | TGI [32]: > 100 µM | TGI [33]: 48.6 µM | TGI [34]: > 100 µM | TGI [35]: > 100 µM | TGI [36]: > 100 µM | TGI [37]: > 100 µM | TGI [38]: > 100 µM | TGI [39]: > 100 µM | TGI [40]: > 100 µM | TGI [41]: 78.6 µM | TGI [42]: 79.8 µM | TGI [43]: > 100 µM | TGI [44]: 58.8 µM | TGI [45]: > 100 µM | TGI [46]: > 100 µM | TGI [47]: > 100 µM | TGI [48]: > 100 µM | TGI [49]: > 100 µM | TGI [50]: > 100 µM | TGI [51]: > 100 µM | TGI [52]: > 100 µM | TGI [53]: > 100 µM

CN(C)CCNC(=O)c1cccc2cc([N+](=O)[O-])ccc12
GI50 [1]: 1.83 µM and 0.279 µM | TGI [1]: 4.2 µM and 0.977 µM | GI50 [2]: 1.6 µM and 0.441 µM | TGI [2]: 3.32 µM and 1.2 µM | GI50 [3]: 1.33 µM and 0.179 µM | TGI [3]: 2.75 µM and 0.621 µM | TGI [54]: 0.471 µM | GI50 [4]: 0.513 µM and 0.0724 µM | GI50 [5]: 0.39 µM | TGI [5]: 2.05 µM | TGI [6]: 0.743 µM | TGI [55]: 17.1 µM | TGI [7]: 4.4 µM | TGI [56]: 6.21 µM | GI50 [8]: 0.519 µM and 0.18 µM | TGI [8]: 17.7 µM and 5.64 µM | GI50 [9]: 2.19 µM and 0.233 µM | TGI [9]: 11.9 µM and 2.79 µM | GI50 [10]: 1.37 µM and 0.38 µM | TGI [10]: 5.77 µM and 1.08 µM | TGI [57]: 15.3 µM | GI50 [11]: 1.71 µM and 0.196 µM | TGI [11]: 11.5 µM and 1.38 µM | TGI [58]: 5.27 µM | GI50 [12]: 2.1 µM and 0.311 µM | GI50 [13]: 0.384 µM and 0.127 µM | TGI [13]: 2.94 µM and 0.604 µM | GI50 [14]: 1.54 µM and 0.213 µM | TGI [14]: 3.74 µM and 0.986 µM | TGI [59]: 9.44 µM | GI50 [15]: 0.292 µM and 0.0829 µM | TGI [15]: 1.25 µM and 0.407 µM | TGI [16]: 1.55 µM | TGI [17]: 0.722 µM | GI50 [18]: 0.608 µM and 0.175 µM | TGI [18]: 3.02 µM and 0.541 µM | GI50 [20]: 1.69 µM and 0.178 µM | TGI [20]: 7.57 µM and 2.24 µM | GI50 [21]: 0.183 µM | TGI [21]: 2.22 µM | GI50 [22]: 0.886 µM and 0.146 µM | TGI [22]: 2.34 µM and 0.606 µM | GI50 [23]: 0.681 µM and 0.189 µM | TGI [23]: 4.96 µM and 1.07 µM | TGI [60]: 7.16 µM | GI50 [24]: 0.719 µM and 0.141 µM | TGI [24]: 6.07 µM and 0.939 µM | TGI [25]: 1.83 µM | GI50 [27]: 0.989 µM and 0.414 µM | TGI [27]: 3.77 µM and 2.66 µM | TGI [61]: 7.7 µM | GI50 [28]: 1.87 µM and 0.22 µM | TGI [28]: 10.9 µM and 1.16 µM | GI50 [29]: 1.19 µM and 0.224 µM | TGI [29]: 4.13 µM and 1.23 µM | TGI [62]: 1.04 µM | GI50 [30]: 0.579 µM and 0.123 µM | GI50 [63]: 0.566 µM and 0.129 µM | TGI [64]: 0.132 µM | TGI [32]: 1.61 µM | GI50 [33]: 1.62 µM and 0.254 µM | TGI [33]: 8.14 µM and 3.53 µM | TGI [65]: 16.3 µM | TGI [66]: 2.88 µM | GI50 [34]: 0.816 µM and 0.155 µM | TGI [34]: 4.74 µM and 0.591 µM | GI50 [35]: 1.65 µM and 0.213 µM | TGI [35]: 4.92 µM and 0.774 µM | TGI [67]: 13.8 µM | GI50 [36]: 1.79 µM and 0.245 µM | TGI [36]: 14.2 µM and 2.32 µM | TGI [37]: 5.47 µM and 0.87 µM | GI50 [38]: 1.28 µM and 0.168 µM | TGI [38]: 4.6 µM and 1 µM | GI50 [39]: 3.48 µM and 0.535 µM | TGI [39]: 33.1 µM and 14.5 µM | TGI [40]: 0.897 µM | GI50 [41]: 2.36 µM and 0.332 µM | TGI [41]: 11.7 µM and 2.26 µM | GI50 [42]: 0.605 µM and 0.157 µM | TGI [42]: 7.43 µM and 1.65 µM | TGI [43]: 0.902 µM | TGI [44]: 2.29 µM and 0.705 µM | GI50 [45]: 2.55 µM and 0.342 µM | TGI [45]: 16.1 µM and 2.38 µM | GI50 [47]: 1.19 µM and 0.185 µM | TGI [47]: 4.53 µM and 0.91 µM | TGI [48]: 0.722 µM | GI50 [49]: 0.893 µM and 0.217 µM | TGI [50]: 6.33 µM and 2.28 µM | GI50 [51]: 1.69 µM and 0.211 µM | TGI [51]: 6.68 µM and 0.758 µM | TGI [52]: 1.34 µM | TGI [53]: 16.4 µM | TGI [68]: 6.23 µM
